{"source": "patent US4820712A", "about": "“Sparsomycin (SC-RS) compounds having antitumor activity, a process for their preparation and pharmaceutical compositions containing sparsomycin (SC-RS) compounds” (priority 1986, dated 1989)", "key": {"[1]": {"test_system": "ribosomes from E. coli MRE600 (peptidyl transferase activity)", "assay": "puromycin reaction, E. coli ribosomes", "type": "biochemical", "conditions": "50% inhibition relative to control; read-out: ED50 Puromycin reaction E. coli", "protocol": "The peptidyl transferase activity was measured by the polyphenylalanine synthesis assay (Nirenberg and Matthei, Proc. Natl. Acad. Sci. USA 47 (1961) 1588), the fragment reaction (Monro, Methods Enzymol. 20 (1971) 472) and the puromycin reaction. In all the in vitro tests, i.e. polyPhe synthesis, fragment reaction and puromycin reaction, ribosomes from E. coli MRE600 and S. cerevisiae Y166 were used. The reaction mixture for polyphenylalanine synthesis was slightly different for E. coli and S. cerevisiae.\nThe puromycin reaction was carried out in 25 μl of 30 mM KCl, 50 mM NH4 Cl, 30 mM Tris-HCl pH 7.8, 20 mM MgCl2, 10 pmol of ribosomes, 100 μg/ml of poly(U) and 15 pmol of N-acetyl-[^3 H]Phe-tRNA. The reaction mixture was incubated for 30 min at 37° C. and then 1 μl of 20 mM puromycin was added and incubation was followed for 5 more min. To the samples 250 μl of 0.1M sodium carbonate and 0.7 ml of ethyl acetate were added, shaken for 1 min, centrifuged to separate the phases and 0.5 ml of the upper organic phase taken for estimating the radioactivity.\nThe concentration of sparsomycin or an analog giving 50% inhibition of the protein synthesis relative to the control is given in ED50."}, "acute toxicity LD50": {"assay": "acute toxicity LD50", "type": "in vivo, mice", "conditions": "for LD50: mouse, in vivo, ip, daily x9 injections, mice, 95% confidence interval given, read-out: LD 50 in mg/kg/inj i.p. in mice", "excerpt": "It appears therefrom that ala-sparsomycin is about 9× less toxic than sparsomycin."}, "[2]": {"conditions": "clinical tests (Cancer. Chemother. Rep. (1969), 43, 29); cited from earlier work"}, "whole reticulocytes": {"test_system": "whole reticulocytes", "conditions": "attributed to being unable to penetrate these cells; cited from earlier work"}}, "data": [{"smiles": "CSC[S@+]([O-])C[C@H](C)NC(=O)/C=C/c1c(C)[nH]c(=O)[nH]c1=O", "note": "[2a, (Sc Rs)-1-(methylthiomethyl)sulfinyl-2-[β-(6-methyl-5-uracilyl)acrylamido]-propane]", "values": [{"measurement": "IC50", "setting": "[1]", "value": 900, "unit": "nM"}, {"measurement": "times less toxic than sparsomycin (LD50 ratio)", "setting": "acute toxicity LD50; compared with sparsomycin, LD50 i.p. in mice", "value": "about 9 ×"}, {"measurement": "LD50", "setting": "acute toxicity LD50", "value": 2.33, "unit": "mg/kg"}]}, {"smiles": "CSC[S@+]([O-])C[C@H](CO)NC(=O)/C=C/c1c(C)[nH]c(=O)[nH]c1=O", "note": "[Sparsomycin]", "values": [{"measurement": "IC50", "setting": "[1]", "value": 100, "unit": "nM"}, {"measurement": "LD50", "setting": "acute toxicity LD50", "value": 0.26, "unit": "mg/kg"}, {"measurement": "toxicity revealed in clinical tests", "setting": "[2]", "value": "eye toxicity"}, {"measurement": "activity against whole reticulocytes", "setting": "whole reticulocytes", "value": "not active"}]}]}
